Literature values in US7855190B2, “Methods of hormonal treatment utilizing contraceptive regimens with continuous estrogen administration” (Teva Women's Health, Inc., priority 2003, dated 2010).

Conditions: for amount equivalent to 0.050 mg of levonorgestrel: relative potency of progestins; for amount roughly equivalent to 30 μg of ethinyl estradiol: relative potency of estrogens

Structure (SMILES)	amount equivalent to 0.050 mg of levonorgestrel	amount roughly equivalent to 30 μg of ethinyl estradiol
C#CC1(O)CC[C@H]2[C@@H]3CCC4=CC(=O)CC[C@@H]4[C@H]3CC[C@@]21CC (mixture of isomers) [norgestrel]	about 0.100 mg	–
C#C[C@]1(O)CC[C@H]2[C@@H]3CCC4=CC(=O)CC[C@@H]4[C@H]3C(=C)C[C@@]21CC [3-ketodesogestrel]	about 0.050 mg	–
C[C@]12CC[C@@H]3c4ccc(O)cc4CC[C@H]3[C@@H]1CC[C@@H]2O [17β-estradiol]	–	~2,000 μg
C#C[C@]1(O)CC[C@H]2[C@@H]3CCC4=CCCC[C@@H]4[C@H]3C(=C)C[C@@]21CC [desogestrel]	about 0.050 mg	–
C#C[C@]1(O)C=C[C@H]2[C@@H]3CCC4=CC(=O)CC[C@@H]4[C@H]3CC[C@@]21CC [gestodene]	about 0.035 mg	–
C#C[C@]1(O)CC[C@H]2[C@@H]3CCc4cc(OC)ccc4[C@H]3CC[C@@]21C [mestranol]	–	~60 µg
C#C[C@]1(OC(C)=O)CC[C@H]2[C@@H]3CCC4=CC(=O)CC[C@@H]4[C@H]3CC[C@@]21C [norethindrone acetate]	about 0.175 mg	–
